Results published in PubChem BioAssay (NCI).
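Tested at 5 concentrations; 48 h exposure; 96-well plates; endpoints linearly interpolated, else capped at highest concentration. The concentration for 50% growth inhibition is given as GI50. TGI marks complete inhibition of growth.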

Columns and labels:
Experiment in all cases: inhibition of tumour cell growth, NCI panel, 48 h
[1] = test system: OVCAR-5 ovarian
[2] = test system: RXF 393 renal
[3] = test system: NCI-H522 lung
[4] = test system: U251 CNS
[5] = test system: RPMI-8226 leukemia
[6] = test system: DU-145 prostate
[7] = test system: CAKI-1 renal
[8] = test system: HOP-62 NSCLC
[9] = test system: HS 578T breast
[10] = test system: LOX IMVI melanoma
[11] = test system: HCT-116 colon
[12] = test system: 786-0 renal
[13] = test system: PC-3 prostate
[14] = test system: SK-MEL-28 melanoma
[15] = test system: HL-60(TB) leukemia
[16] = test system: MDA-MB-231 breast
[17] = test system: SNB-19 CNS
[18] = test system: HOP-92 NSCLC
[19] = test system: A498 renal
[20] = test system: M14 melanoma
[21] = test system: SNB-75 CNS
[22] = test system: SF-268 CNS
[23] = test system: UACC-257 melanoma
[24] = test system: MDA-MB-435
[25] = test system: MALME-3M melanoma
[26] = test system: MCF7 breast
[27] = test system: OVCAR-4 ovarian
[28] = test system: TK-10 renal
[29] = test system: IGROV1 ovarian
[30] = test system: NCI-H226 lung
[31] = test system: HCT-15 colon
[32] = test system: OVCAR-3 ovarian
[33] = test system: CCRF-CEM leukemia
[34] = test system: HT29 colon
[35] = test system: OVCAR-8 ovarian
[36] = test system: BT-549 breast
[37] = test system: SK-MEL-2 melanoma
[38] = test system: NCI-H460 lung
[39] = test system: SF-539 CNS
[40] = test system: NCI-H23 lung
[41] = test system: ACHN renal
[42] = test system: SF-295 CNS
[43] = test system: SW-620 colon
[44] = test system: EKVX NSCLC
[45] = test system: MOLT-4 leukemia
[46] = test system: SN12C renal
[47] = test system: HCC-2998 colon
[48] = test system: MDA-MB-468 breast
[49] = test system: UO-31 renal
[50] = test system: SR leukemia
[51] = test system: T-47D breast
[52] = test system: SK-OV-3 ovarian
[53] = test system: SK-MEL-5 melanoma
[54] = test system: UACC-62 melanoma
[55] = test system: K-562 leukemia
[56] = test system: COLO 205 colon
[57] = test system: KM12 colon
[58] = test system: A549 NSCLC

Cc1ccc(-c2cc(-c3cc4ccccc4nc3Cl)[nH]c(=O)n2)cc1
GI50 [1]: 16.9 µM | TGI [1]: 32.5 µM | GI50 [2]: 14.6 µM | TGI [2]: 32.6 µM | GI50 [3]: 13.9 µM | TGI [3]: 27.3 µM | GI50 [4]: 9.95 µM | TGI [4]: 28.6 µM | GI50 [5]: 3.17 µM | TGI [5]: 17.8 µM | GI50 [6]: 13.1 µM | TGI [6]: 26.9 µM | GI50 [7]: 11.9 µM | TGI [7]: 26.5 µM | GI50 [8]: 14.2 µM | TGI [8]: 31.5 µM | GI50 [9]: 13 µM | TGI [9]: 83.4 µM | GI50 [10]: 8.43 µM | TGI [10]: 23.9 µM | GI50 [11]: 3.31 µM | TGI [11]: 14 µM | GI50 [12]: 4.71 µM | TGI [12]: 17.5 µM | GI50 [13]: 12 µM | TGI [13]: 37 µM | GI50 [14]: 16.2 µM | TGI [14]: 30.2 µM | GI50 [15]: 1.89 µM | TGI [15]: 14.6 µM | GI50 [16]: 13.9 µM | TGI [16]: 32.4 µM | GI50 [17]: 11.3 µM | TGI [17]: 23.9 µM | GI50 [18]: 2.73 µM | TGI [18]: 14.5 µM | GI50 [19]: 14.4 µM | TGI [19]: 30.5 µM | GI50 [20]: 10.7 µM | TGI [20]: 30.1 µM | GI50 [21]: 11.4 µM | TGI [21]: 40.2 µM | GI50 [22]: 13.8 µM | TGI [22]: 32.3 µM | GI50 [23]: 16.7 µM | TGI [23]: 35.7 µM | GI50 [24]: 14.9 µM | TGI [24]: 31.5 µM | GI50 [25]: 14.8 µM | TGI [25]: 29.1 µM | GI50 [26]: 6.08 µM | TGI [26]: 22.4 µM | GI50 [27]: 20.9 µM | TGI [27]: > 100 µM | GI50 [28]: 15.1 µM | TGI [28]: 29.7 µM | GI50 [29]: 16 µM | TGI [29]: 37.2 µM | GI50 [30]: 13.1 µM | TGI [30]: 37.2 µM | GI50 [31]: 13 µM | TGI [31]: 45.1 µM | GI50 [32]: 10.3 µM | TGI [32]: 22.5 µM | GI50 [33]: 3.94 µM | TGI [33]: 35.5 µM | GI50 [34]: 16 µM | TGI [34]: 34.6 µM | GI50 [35]: 18.5 µM | TGI [35]: 76.8 µM | GI50 [36]: 2.73 µM | TGI [36]: 7.87 µM | GI50 [37]: 14.4 µM | TGI [37]: 30.6 µM | GI50 [38]: 10 µM | TGI [38]: 29.3 µM | GI50 [39]: 12.1 µM | TGI [39]: 24.7 µM | GI50 [40]: 12.2 µM | TGI [40]: 30.2 µM | GI50 [41]: 16.3 µM | TGI [41]: 32.9 µM | GI50 [42]: 16.9 µM | TGI [42]: 35.1 µM | GI50 [43]: 13.8 µM | TGI [43]: 34.4 µM | GI50 [44]: 17.6 µM | TGI [44]: 54.8 µM | GI50 [45]: 2.66 µM | TGI [45]: 12.4 µM | GI50 [46]: 15.8 µM | TGI [46]: 33 µM | GI50 [47]: 15.3 µM | TGI [47]: 29.4 µM | GI50 [48]: 12.7 µM | TGI [48]: 44.3 µM | GI50 [49]: 10.4 µM | TGI [49]: 22.2 µM | GI50 [50]: 1.2 µM | TGI [50]: 4.33 µM | GI50 [51]: 16.4 µM | TGI [51]: 77.3 µM | GI50 [52]: 29.2 µM | TGI [52]: > 100 µM | GI50 [53]: 17.7 µM | TGI [53]: 33.7 µM | GI50 [54]: 14 µM | TGI [54]: 30 µM | GI50 [55]: 2.61 µM | TGI [55]: 13.2 µM | GI50 [56]: 18 µM | TGI [56]: 38.8 µM | GI50 [57]: 7.63 µM | TGI [57]: 24.8 µM | GI50 [58]: 22.1 µM | TGI [58]: > 100 µM
